In ChEMBL document CHEMBL1148656, “Synthesis, SAR exploration, and X-ray crystal structures of factor XIa inhibitors containing an alpha-ketothiazole arginine” (Bioorg Med Chem Lett, 2006) one finds IC50 data, which are given here for 14 compounds.

The assay has as its target Coagulation factor XI (Homo sapiens, UniProt P03951).

Sequence of Coagulation factor XI (P03951 19-387 limits assumed): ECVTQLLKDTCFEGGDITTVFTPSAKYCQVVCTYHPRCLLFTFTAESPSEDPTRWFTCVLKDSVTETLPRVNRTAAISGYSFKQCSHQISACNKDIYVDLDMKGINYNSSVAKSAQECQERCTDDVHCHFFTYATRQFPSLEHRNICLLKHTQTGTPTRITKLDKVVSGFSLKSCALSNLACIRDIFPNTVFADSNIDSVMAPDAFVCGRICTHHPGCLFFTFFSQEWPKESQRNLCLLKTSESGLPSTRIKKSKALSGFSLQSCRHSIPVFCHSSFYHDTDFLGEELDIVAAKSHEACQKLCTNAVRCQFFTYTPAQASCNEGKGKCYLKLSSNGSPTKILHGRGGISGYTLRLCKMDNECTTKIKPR
Sequence of Coagulation factor XI (P03951 388-625 limits assumed): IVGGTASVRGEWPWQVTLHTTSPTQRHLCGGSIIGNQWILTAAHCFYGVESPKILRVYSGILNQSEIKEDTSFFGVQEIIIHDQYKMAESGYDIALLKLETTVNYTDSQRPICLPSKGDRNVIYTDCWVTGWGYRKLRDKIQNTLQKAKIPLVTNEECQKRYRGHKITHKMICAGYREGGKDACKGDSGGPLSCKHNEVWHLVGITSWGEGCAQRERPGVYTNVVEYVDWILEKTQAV

Broadly, the IC50 is the concentration needed to halve the response being measured. Higher therefore signals a need for much substance. On to `N=C(N)NCCC[C@H](NS(=O)(=O)c1ccc2ccccc2c1)C(=O)c1nccs1`, for which the IC50 is 86 µM.
The result for `CC(C)[C@H](CC(=O)NCc1ccc(Cl)c(Cl)c1)C(=O)N[C@@H](CCCN=C(N)N)C(=O)c1nccs1` reads 6.22 µM.
The result for `NC(N)=NCCC[C@H](NC(=O)Cc1ccc(Cl)c(Cl)c1)C(=O)c1nccs1` reads 37.9 µM; that for `CC(C)[C@H](NC(=O)N[C@@H]1C[C@@H]2C[C@H]([C@H]1C)C2(C)C)C(=O)N[C@@H](CCCN=C(N)N)C(=O)c1nccs1`, 0.713 µM.
Then `CC(C)[C@H](NC(=O)N[C@H]1C[C@H]2C[C@@H]([C@@H]1C)C2(C)C)C(=O)N[C@@H](CCCN=C(N)N)C(=O)c1nccs1`, with 3.31 µM.
As for `N=C(N)NCCC[C@H](NS(=O)(=O)c1cccc2ccccc12)C(=O)c1nccs1`, the IC50 came to 250 µM.
The result for `N=C(N)NCCC[C@H](NC(=O)c1cc(F)cc2c1OCOC2)C(=O)c1nccs1` reads 5.9 µM; that for `CC(C)[C@H](NC(=O)[C@H](O)c1cccc(F)c1)C(=O)N[C@@H](CCCN=C(N)N)C(=O)c1nccs1`, 0.956 µM.
As for `NC(N)=NCCC[C@H](NC(=O)c1cccc2ccccc12)C(=O)c1nccs1`, it took 2.25 µM to reach half-maximal inhibition (IC50). This IC50 lies about 2.4-fold higher than the previous one.
For the compound `CC(C)[C@H](NC(=O)NCc1ccc(Cl)c(Cl)c1)C(=O)N[C@@H](CCCN=C(N)N)C(=O)c1nccs1`, the IC50 came to 0.48 µM. Compared with the last compound, the IC50 is about 4.7-fold lower.
Then `NC(N)=NCCC[C@H](NC(=O)Cc1cccc2ccccc12)C(=O)c1nccs1`, with over 250 µM.
Then `CC(C)CC(=O)N[C@@H](CCCN=C(N)N)C(=O)c1nccs1`, with 123 µM; and `N=C(N)NCCC[C@H](NC(=O)c1ccc2ccccc2c1)C(=O)c1nccs1`, with over 200 µM; and `CC(C)[C@H](NC(=O)[C@H](O)c1cccc(Cl)c1)C(=O)N[C@@H](CCCN=C(N)N)C(=O)c1nccs1`, with 0.116 µM.
